From doi:10.1101/2025.03.03.641193, “Trihydroxybenzaldoximes are redox cycling inhibitors of ThDP-dependent DXP synthase” (bioRxiv, 2025)

Experiments:
[1] = target: T1, R478A DXPS (Escherichia coli, UniProt P77488, R478A); experiment: DXPS-IspC coupled assay, R478A variant; type: biochemical, E. coli
T1 construct: made in house
Method: In this experiment, pyruvate was varied from 12.5–500 μM and D-GAP was maintained at 2x Km.. […] Thus, it appears that EcR478A is not absolutely critical for binding 1.
(§1) Inhibitory activity of compounds against DXPS were monitored via a continuous spectrophotometric coupled assay with DXPS and IspC as previously described.[41],[42] Briefly, Reaction mixtures containing HEPES (100 mM, pH 8.0), MgCl2 (2 mM), NaCl (5 mM), ThDP (1 mM), BSA (1 mg/mL), DXPS (125–500 nM), IspC (1.7 μM), NADPH (160 μM), DMSO (5%, v/v), and inhibitor (0–200 μM) were preincubated at 25 °C (or chamber temperature 25–30 °C) for 5 min. Enzymatic reactions were initiated via the addition of 20 μL of a 10x substrate mix for a final well volume of 200 μL. Reactions were performed in triplicate unless otherwise noted. See the following sections for details and modifications.
(§2) When varying pyruvate (0–500 μM), GAP was maintained at 50 μM (3 mM for R478A). When varying GAP (0–500 μM), pyruvate was maintained at 500 μM. The following [DXPS] were used when varying 1: WT EcDXPS, R478A, H431A, D427A (200 nM), R99A (500 nM), WT DrDXPS, WT PaDXPS (150 nM). Analogs 3 and 4 were tested using WT EcDXPS (150 nM). Reactions were incubated and initiated as described above. Immediately following initiation, NADPH depletion was monitored at 340 nm at 25 °C for 7–10 min with a 14–20 second time interval. Initial velocities of DXP formation were determined from the linear portion of the NADPH decay. Initial velocities were arithmetically corrected for background for compound 4. Initial velocities were plotted vs. substrate concentration, and the data were fit to equation 1 (mixed model), 2 (competitive), or 3 (uncompetitive) based on the calculated α value and goodness of fit in GraphPad Prism. Reported standard errors of the mean for Kis are calculated from three replicates.

[2] = Steady state CV, gold ultramicroelectrode; type: physicochemical; details: Tris pH 8, prepared aerobically then deoxygenated, gold UME
From the text: To provide additional evidence for DXPS-dependent reduction of 1, we used electrochemistry to continuously monitor the redox state of 1 during the course of a DXPS reaction. For these experiments, we used a gold ultramicroelectrode, which allowed us to observe the steady-state current corresponding to the reduction of 1, under diffusion control, during the progression of the reaction. […] Using Equation 4 (Electrochemical Measurements, Materials and Methods), it was estimated that the observed pseudo steady state current at −0.50 V corresponded to a one-electron transfer reaction. We used this voltage to interrogate the reduction of 1 during reaction with enzyme and substrates. […] Reactions were initiated in the cell via addition of different combinations of DXPS and substrates which were previously deoxygenated in an anaerobic chamber (Fig 9, S26). […] Returning to the CV, when measured after the chemical reaction transpires, the reduction peak nearly vanished as expected (Fig 9, S28).
Reaction solutions were prepared containing 2 mM MgCl2, 100 mM NaCl, 50 mM Tris pH 8, 1 mM ThDP, and 1 (final 1 mM) under aerobic conditions to allow for oxidation of 1. […] Reactions were initiated and mixed via gas tight Hamilton syringe at ~300 s and measured for at least 200 s. […]

[3] = target: T2, PaDXPS (Pseudomonas aeruginosa, UniProt Q9KGU7); experiment: DXPS-IspC coupled assay, PaDXPS; type: biochemical
T2 construct: made in house
Method: as §1, §2

[4] = target: T3, WT EcDXPS (Escherichia coli, UniProt P77488); experiment: Anaerobic apparent Ki, DXPS-IspC coupled assay; type: biochemical, E. coli
T3 construct: made in house
Method: as §1
Reaction components were brought into the anaerobic chamber and allowed to deoxygenate for ~2 hours. WT EcDXPS was used at 125 nM. When varying pyruvate (0–500 μM), GAP was maintained at 50 μM. When varying GAP (0–500 μM), pyruvate was maintained at 500 μM. Reactions were incubated and initiated as described above. Immediately following initiation, NADPH depletion was monitored at 340 nm at chamber temperature (25–30 °C) for 5 min with a ~17 second time interval. Initial velocities of DXP formation were determined as above, plotted vs. substrate concentration, and the data were fit to either equation 2, or 3 based on the calculated α value and goodness of fit in GraphPad Prism. Reported standard errors of the mean for Kis are calculated from three replicates.

In the case of ON=Cc1cc(O)c(O)cc1O [compound 1, 2,4,5-trihydroxybenzaldoxime], the Ki [1] is reported as 15.7 ± 0.4 µM, the MOI varying pyruvate ([1]; EcR478A) is reported as “uncompetitive” and the “Ki/Ki^wt” value ([1]; R478A, vary pyruvate, fold reduction in potency vs WT) is reported as ~ 3. For the same compound, the “reduction half-height potential (steady state CV)” value [2] was ~ −0.35 V, the Ki [3] was 16.4 ± 2.2 µM and the “MOI varying D-GAP” value ([3]; PaDXPS) was “competitive”. For the same compound, the MOI varying pyruvate ([3]; PaDXPS) was “uncompetitive”, the “Ki/Ki^EcDXPS” value ([3]; PaDXPS, vary pyruvate, fold reduction in potency) was 3.5 and the “Ki (+O2)/ Ki (-O2)” value ([4]; - O2) was ~ 10. The “MOI varying D-GAP” value ([4]; anaerobic, WT EcDXPS) was “competitive” and the MOI varying pyruvate ([4]; anaerobic, WT EcDXPS) was “uncompetitive”.
